This is an account of results in US6355785B1, “Guanosine-rich oligonucleotide integrase inhibitors” (Aronex Pharmaceuticals, Inc., priority 1993, dated 2002).

Values joined by “and” are separate entries in the source; they are usually repeats but may differ in a detail not shown here. Equal values may be shown once. Read-outs that look alike come from different tables or passages of the source.

Broadly, the CC50 is the concentration giving 50% cytotoxicity.

Data set [1] concerns AA5. The data set is classed as cell-based, human. The procedure: (§1) Cytotoxicity Analysis. The cytotoxicity of T30177 was assayed as described above. […] The degree of cell proliferation was determined according to the manufacturer's instructions.
(§2) Cytotoxicity Assays. The cytotoxicity of T30177 was determined using several different cell lines and primary human cells as described above. The cytotoxicity profile obtained for log phase growing cells was variable depending upon the cell line used, while the slower growing PBMCs, PBLs, and macrophages all tolerated the compound at concentrations exceeding 100 μM as monitored using the trypan blue exclusion, [^3H]thymidine uptake, or [^3H]leucine uptake techniques.

Data set [2] deals with U937. The data set is classed as cell-based, human. The procedure:
as §1, §2

The test system of data set [3] is CEMx174. The data set is classed as cell-based, human. As to the method:
as §1, §2

Data set [4] has as its system MT4. The data set is classed as cell-based, human. As to the method: as §1, §2
Data set [5] deals with MT2. The data set is classed as cell-based, human. As to the method:
as §1, §2

Data set [6] has as its system RSV (A2).
Data set [7] concerns the target T1, recombinant RT (HIV-1BH10) (Human immunodeficiency virus type 1 group M subtype B, UniProt P03366).
T1 construct: Purified recombinant RT (HIV-1BH10) was obtained from the University of Alabama; purchased University of Alabama, Center for AIDS research (obtained from)
Put plainly: Reverse transcriptase enzyme inhibition assays. The data set is classed as biochemical.

In data set [8] the target is T2, SIV integrase (Simian immunodeficiency virus, UniProt P05896).
T2 construct: Purified recombinant wild-type FIV and SIV integrases were generous gifts; purchased gift of Dr. R. Craigie (NIDDK) (not bought)
Put plainly: SIV integrase 3′-processing assay. The data set is classed as biochemical.

In data set [9] the test system is HIV-1 strains (SKI, RF, DV, IIIB, ADP/141). The conditions noted are these: previously reported by Ojwang et al.; cited from earlier work.
In data set [10] the test system is Semliki forest virus.

T2 sequence (P05896 1156-1448): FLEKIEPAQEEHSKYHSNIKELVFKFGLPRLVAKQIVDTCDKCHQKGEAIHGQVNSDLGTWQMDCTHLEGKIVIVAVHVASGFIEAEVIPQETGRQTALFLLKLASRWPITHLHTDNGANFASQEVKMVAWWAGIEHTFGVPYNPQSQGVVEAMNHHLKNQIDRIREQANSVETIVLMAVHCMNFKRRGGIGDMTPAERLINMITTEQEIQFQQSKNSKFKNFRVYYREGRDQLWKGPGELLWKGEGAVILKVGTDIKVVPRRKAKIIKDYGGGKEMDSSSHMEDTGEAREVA

“5′-gtggtgggtgggtgggt-3′ (GTGGTGGGTGGGTGGGT; phosphorothioate termini, further chemistry not given here) [T30177, pPT version of parent compound I100-15, 17 mer]”: the CC50 in data set [1] was 94.2 ± 3.1 µM; in data set [2], > 100 µM; in [3] it was 50 ± 5.2 µM; in [4], 70 ± 7.1 µM; in [5] it was 61.2 ± 5.5 µM. The TC25 is 45.66 ± 2.0 µM in [1]; >100 µM in data set [2]; 10 ± 2.5 µM in data set [3]; 34 ± 4.0 µM in [4]; 27 ± 3.5 µM in data set [5]. In addition, the TC95 in data set [1], in [2], in [3], in [4] and in data set [5] was >100 µM throughout. Also, the IC50 virus-induced cytopathogenicity in data set [6] (RSV (A2)) was >200 µg/mL. The “MCC minimum concentration altering normal cell morphology” value in data set [6] (RSV (A2) assay) is recorded as >400 μg/mL. In addition, the IC50 in [7] (depending upon the template, read-out: 50% inhibitory value, viral reverse transcriptase) is 1 to 10 µM; in data set [7] (template gapped duplex DNA, duplicate experiments, read-out: IC50 recombinant HIV-1 RT) it was > 5 µM and 8 µM and 10 µM; in [8], 0.42 µM.

For the substance “5′-gtggtgggtgggtgggt-3′ [T30177] (GTGGTGGGTGGGTGGGT; phosphorothioate termini, further chemistry not given here)”, in data set [9], the IC50 was 0.075 µM. Also, the “Body Weights” value by setting is: (2.5 mg/kg, Day 7) 3.1 ± 0.6; (2.5 mg/kg, Day 14) 3.2 ± 0.6; (2.5 mg/kg, Day 21) 3.2 ± 0.6; (2.5 mg/kg, Day 25) 3.1 ± 0.6; (2.5 mg/kg, Prestudy) 3.1 ± 0.5; (10 mg/kg, Day 7) 3.2 ± 0.7. Also, the “Body Weights” value is given as 3.3 ± 0.7 (10 mg/kg, Day 14); 3.3 ± 0.7 (10 mg/kg, Day 21); 3.2 ± 0.7 (10 mg/kg, Day 25); 3.2 ± 0.7 (10 mg/kg, Prestudy); 3.2 ± 0.6 (40 mg/kg, Day 7); 3.3 ± 0.6 (40 mg/kg, Day 14). The “Body Weights” value was 3.2 ± 0.6 (40 mg/kg, Day 21); 3.1 ± 0.6 (40 mg/kg, Day 25); 3.2 ± 0.6 (40 mg/kg, Prestudy). Besides, the treatment-related clinical sign entry (40 mg/kg) was “discoloration around the eyes in three high-dose animals”. The mortality entry (2.5, 10, 40 mg/kg every other day, 12 doses) is on record as “No animals died”. Besides, the body weight result (12 doses) is listed as “no effects on body weight”. For the same substance, under “cynomolgus monkey, in vivo”, the ECG recordings entry is given as “No abnormalities”. Moreover, in [10] (Semliki forest virus), the IC50 virus-induced cytopathogenicity is >200 µg/mL. Besides, the “MCC minimum concentration altering normal cell morphology” value in data set [10] (Semliki forest virus assay) is reported as “≧200 μg/mL”.
